# Patent US20070254324A1, “Method for determination of platelet function under flow conditions” (DADE BEHRING MARBURG GmbH, priority 2006, published 2007)
# What was measured:
# Assay type in all cases: cell-based, human
# [1] = tested on: platelet aggregation in platelet rich plasma; test: ADP induced light transmission aggregometry (according to Born); settings: 100 μmol/L MRS 2395 in vitro; PRP; 5 μM ADP
# Experimental: (§1) Venous blood was taken from 11 healthy donors and anticoagulated with sodium citrate (3.2% buffered Na citrate).
# (§2) Aliquots of the citrated whole blood sample were treated in vitro with the P2Y(12) antagonist MRS 2395 (Sigma-Aldrich Chemie GmbH, Steinheim, Germany). For this purpose an ethanolic MRS 2395 stock solution (15 mg/mL) was mixed with the whole blood samples so that an end concentration of 100 μmol/L was obtained.
# (§3) After addition of the reagents the blood samples were incubated at room temperature for 5 minutes.
# In order to check whether the samples treated with MRS 2395 actually show a reduced platelet aggregation, platelet rich (PRP) and platelet poor (PPP) plasma was prepared from aliquots of the untreated and MRS 2395-treated whole blood samples described under Example 1a). Then the samples were treated with 5 μM ADP. The PPP samples were used as blank controls. The photometric measurement of the aggregation reaction was carried out in the automated coagulation apparatus BCT® (Dade Behring Marburg GmbH, Marburg, Germany) under continuous stirring (600 rpm). The platelet aggregation of the samples treated with MRS 2395 was reduced by a mean of 27% compared with the platelet aggregation of the untreated samples.
# [2] = tested on: platelet function in whole blood; test: Closure time under flow conditions, PFA-100 Col/Epi test cartridge; settings: for Number of samples with closure times above the cut-off (n = 11): cut-off 158 seconds, ASA 30 μmol/L
# Experimental: as §1, §2
# (§4) Further aliquots of the citrated whole blood samples were treated in vitro with the COX-1 inhibitor acetylsalicylic acid (abbr.: ASA; Sigma-Aldrich Chemie GmbH, Steinheim, Germany). For this purpose an aqueous ASA stock solution (1 mg/mL) was mixed with whole blood samples so that an end concentration of 30 μmol/L was obtained.
# as §3
# (§5) Venous blood was taken from healthy donors and anticoagulated with sodium citrate (3.2% buffered Na citrate). The closure time determination was carried out for each whole blood sample in the PFA-100® apparatus. Samples from 186 donors were determined in duplicate with a Col/Epi PFA-100® test cartridge [see Example 1d)] and a Col/ADP PFA-100® test cartridge [see Example 1d)].
# (§6) The reference ranges (normal range) for the Col/Epi closure time and the Col/ADP closure time were established in that the measurement value ranges determined in which 90% of the measurement values for the healthy subjects were found (90% central interval of the normal distribution of all measurements). This gave the following reference ranges for the closure times:
# (§7) The upper reference limit of the reference range was defined as cut-off, i.e. as threshold value, for a platelet dysfunction. If the closure time of a patient sample deviates from the reference range it can indicate a platelet dysfunction. This means Col/Epi closure times that are greater than 158 seconds and Col/ADP closure times that are greater than 115 seconds indicate the presence of a platelet dysfunction within the sense of a reduced aggregation efficiency.
# (§8) To determine the closure time using a Col/Epi PFA-100® test cartridge (2 μg of collagen and 10 μg of epinephrine on the partition member; 150 μm aperture diameter; Dade Behring Marburg GmbH, Marburg, Germany) and using a Col/ADP PFA-100® test cartridge (2 μg of collagen and 50 μg of ADP on the partition member; 150 μm aperture diameter; Dade Behring Marburg GmbH, Marburg, Germany) as measure of platelet function, whole blood samples described in Example 1a) were investigated in a PFA-100® apparatus (Platelet Function Analyzer-100, Dade Behring Marburg GmbH, Marburg, Germany).
# (§9) Aliquots of the samples described in 1a) were taken and mixed according to the invention either with prostaglandin E1 (abbr.: PGE1) or with forskolin (both purchased from Sigma-Aldrich Chemie GmbH, Steinheim, Germany) for activating intracellular adenylate cyclases. For this purpose, the samples were mixed with an ethanolic PGE1 stock solution (0.05 mg/mL) or with an ethanolic forskolin stock solution (5 mg/mL) to reach a final concentration of 12.5 nM PGE1 or a final concentration of 1 μM forskolin. Further aliquots of the samples described in 1a) were not mixed with an activator of intracellular adenylate cyclases and served as control.
# (§10) Then in each case 800 μl of the blood samples mixed with PGE1 or forskolin, or of the control samples were put into the reservoir of a Col/Epi or Col/ADP test cartridge (+37° C.) and incubated in the apparatus at +37° C. for 3 minutes. A partial vacuum of −40 mbar was generated by the apparatus, thus sucking the blood out of the reservoir through the capillary (diameter 200 μm) and finally through the opening (aperture) of the partition member into the measurement chamber. The closure time was determined as the time required until the aperture was closed by formation of a blood clot. […]
# [3] = tested on: platelet function in whole blood; test: Closure time under flow conditions, PFA-100 Col/ADP test cartridge; settings: for Number of samples with closure times above the cut-off (n = 11): cut-off 115 seconds, ASA 30 μmol/L
# Experimental: as §1, §2, §4, §3, §5, §6, §7, §8, §9, §10
# [4] = +1 μM forskolin, MRS 2395 100 μmol/L
# [5] = Control (no activator), MRS 2395 100 μmol/L
# [6] = normal untreated whole blood, 12.5 nM PGE1 or 1 μM forskolin
# [7] = +12.5 nM PGE1, MRS 2395 100 μmol/L
# [8] = +1 μM forskolin, MRS 2395 100 μmol/L, listed as ASA
SMILES,platelet aggregation reduced compared with the untreated samples (mean) [1] [%],"Number of samples with closure times above the cut-off (n = 11) [2, 4]","Number of samples with closure times above the cut-off (n = 11) [2, 5]","Number of samples with closure times above the cut-off (n = 11) [3, 4]","Number of samples with closure times above the cut-off (n = 11) [3, 5]","prolongation of the closure times of the controls [2, 6]","prolongation of the closure times of the controls [3, 6]","Number of samples with closure times above the cut-off (n = 11) [2, 7]","Number of samples with closure times above the cut-off (n = 11) ([2]; +12.5 nM PGE1, MRS 2395 100 μmol/L, listed as ASA)","Number of samples with closure times above the cut-off (n = 11) [2, 8]","Number of samples with closure times above the cut-off (n = 11) [3, 7]","Number of samples with closure times above the cut-off (n = 11) [3, 8]"
"CNc1nc(Cl)nc2c1ncn2CC(COC(=O)C(C)(C)C)COC(=O)C(C)(C)C [MRS 2395, 2,2-dimethyl-propionic acid 3-(2-chloro-6-methylaminopurin-9-yl)-2-(2,2-dimethyl-propionyloxymethyl)-propyl ester]",27,9,3,10,2,,,,,,,
CCCCC[C@H](O)/C=C/[C@H]1[C@H](O)CC(=O)[C@@H]1CCCCCCC(=O)O [prostaglandin E1],,,,,,significant prolongation,Neither the amount of forskolin used nor the amount of prostaglandin E1 used led to a significant prolongation,,,,,
"CC(=O)Oc1ccccc1C(=O)O [Acetylsalicylic acid, acetylsalicylic acid]",,11,8,0,1,,,11,all,all,4,none
